Laboratory results taken from patent US12595281B2, “Indodicarbocyanine phosphoramidites with bathochromically shifted absorption and emission, and tunable hydrophobicity” (The Government of the United States of America, as …, priority 2022, dated 2026).

Test: Methanol content to elute DNA-dye sequences from reverse phase HPLC column
Format: physicochemical
Conditions: average over sequences HJA-D and HJAcomp containing the dye
Experimental: Desalted oligo solutions were then analyzed by liquid chromatography-mass spectrometry (LCMS, see Characterization below for more detail) to confirm the presence of correct sequence in the crude product. Samples containing the confirmed dye-labeled DNA sequences were then pooled and purified by preparatory scale reverse phase HPLC (2707 Autosampler, 2545 Quaternary Gradient Module, 2998 Photodiode Array Detector, and Fraction Collector III, Waters, Inc, Milford, MA) using an XBridge OST C18 OBD 19×50 mm column (Part No. 186008962, Waters, Inc, Milford, MA) with a gradient of increasing methanol in 0.1 M TEAA (aq.). For Cy5-hex, Cy5-Peg and Cy5-tBu containing sequences, LC fractions were concentrated to dryness directly from the 0.1 M TEAA buffer/methanol solution. […] Dried LC fractions were reconstituted in small volumes of water (Optima Grade), to keep concentration sufficiently high (25-50 μM) to visualize and separate low percentage impurities on LCMS. Purified fractions were combined, concentrated, then re-analyzed via LCMS for a final purity assessment.
Due to the overall poor solubility of the parent cyanine dye derivatives in water, the octanol-water partition coefficient (log P) could not be determined by the traditional “shake flask” method. In lieu of this approach, modelling software developed by Advanced Chemistry Development, Inc. was used to predict the partition coefficient and solubility in water (log S0), as shown in Table 2. As an additional means of comparison with direct relevance to the final intended utility of these oligos, the average concentration of methanol required to elute the DNA sequences containing the given dye from the reverse phase HPLC column was determined (the greater the methanol content required to elute, the more hydrophobic the dye). The DNA-dye sequences were utilized for this instead of the free dyes because they are capable of eluting at lower methanol content, but the hydrophobic character of the dye still dominates the elution profile. […] This is in close agreement with the relative “stickiness” of the DNA-dye sequences towards […] stationary phase.

Compound	Av. % MeOH for DNA-dye elution [%]
COc1ccc(C(OCCCN2C(=CC=CC=CC3=[N+](CCCO)c4ccc(Cl)cc4C3(C)C)C(C)(C)c3cc(Cl)ccc32)(c2ccccc2)c2ccccc2)cc1.[I-] [Cy5-Cl, 5,5′-dichloro-1-(3-hydroxypropyl)-1′-(3-monomethoxytritylpropyl)-tetramethyl-dicarboindocyanine iodide]	30.5
COc1ccc(C(OCCCN2C(=CC=CC=CC3=[N+](CCCO)c4ccc(C(C)(C)C)cc4C3(C)C)C(C)(C)c3cc(C(C)(C)C)ccc32)(c2ccccc2)c2ccccc2)cc1.[I-] [Cy5-tBu, 1-(3-hydroxypropyl)-1′-(3-monomethoxytritylpropyl)-5,5′-bis(tert-butyl)-3,3,3′,3′-tetramethyl-dicarboindocyanine iodide]	41
COCCOCCOCCOc1ccc2c(c1)C(C)(C)C(=CC=CC=CC1=[N+](CCCO)c3ccc(OCCOCCOCCOC)cc3C1(C)C)N2CCCOC(c1ccccc1)(c1ccccc1)c1ccc(OC)cc1.[I-] [Cy5-Peg, 1-(3-hydroxypropyl)-1′-(3-monomethoxytritylpropyl)-5,5′-bis{2-[2-(2-methoxyethoxy)ethoxy]ethoxy}-3,3,3′,3′-tetramethyl-dicarboindocyanine iodide]	31.5
CCCCCCOc1ccc2c(c1)C(C)(C)C(=CC=CC=CC1=[N+](CCCO)c3ccc(OCCCCCC)cc3C1(C)C)N2CCCOC(c1ccccc1)(c1ccccc1)c1ccc(OC)cc1.[I-] [Cy5-hex, 1-(3-hydroxypropyl)-1′-(3-monomethoxytritylpropyl)-5,5′-bis(n-hexyloxy)-3,3,3′,3′-tetramethyl-dicarboindocyanine iodide]	51
